Results on one compound are retold here after US20230095912A1, “Composition and Methods for Selective Degradation of Engineered Proteins” (Celgene Corporation, priority 2021, published 2023).

The subject of experiment [1] is IKZF1 ZNF2_3 Q1F tagged CD19 CAR. As to the kind of experiment: CRBN and ubiquitin-proteasome pathway dependence of Q1F-tagged CAR degradation in Jurkat cells. The class given is cell-based, human. Further details: tagged CAR remaining / levels of tagged CAR: dose or concentration left out as unconfirmed. The protocol: The dependence of Q1F-degron-tagged CAR degradation on CRBN and ubiquitin proteolytic pathway were assessed. CD19-targeting CAR was tagged with either IKZF1 ZNF2_3 Q1F (SEQ ID NO: 19) or Q1F/G6N (SEQ ID NO: 59). Lentiviral vectors containing these tagged CARs were then transduced into wildtype (WT) or cereblon (CRBN) knockout (KO) Jurkat cells.
Next, dependence of CAR degradation on the ubiquitin-proteosome pathway was tested by treating WT Jurkats transduced with tagged CAR for 2 hours with DMSO, 20 nM or 200 nM Compound C alone, or alongside either 2 μM of the NEDD8 E1 enzyme inhibitor MLN4924 or 2 μM of proteasome blocker Bortezomib (FIG. 11C).

The test system is the same in experiment [2]. The experiment can be described thus: Jurkat reporter assay (tdTomato), signaling of Q1F-tagged CAR after degradation. It counts as cell-based, human. To be noted: 1 mM pre-treatment 12 hours, co-culture with CD19-expressing K562 8 hours. As for the experimental part: A lentiviral vector encoding ZNF2_3 Q1F or Q1F/G6N tagged CD19 CAR was transduced into the reporter cell line. […] Levels of tdTomato in the form of the overall percent of positive cells (FIG. 12A), as well as mean fluorescence intensity (MFI, FIG. 12B) were assessed by flow cytometry. Degradation of CARs containing the ZNF2_3 Q1F degron decreased signaling by around 30% using 1 mM Compound C and by around 75% using Compound B; this relative difference correlates with the depth of degradation seen for each. Further, the reduction in activity depends upon having an intact G-motif, as the G6N mutation prevents inhibition.

Experiment [3] addresses T1, ePL-tagged Aiolos (Homo sapiens, UniProt Q96SW2+Q9UKT9).
T1 construct: expressed in transfected cells
As to the kind of experiment: ePL-tagged substrate degradation in DF15 multiple myeloma cells. The class given is cell-based. The protocol:
(§1) DF15 multiple myeloma cells stably expressing ePL-tagged Aiolos, Ikaros, or GSPT1, and MDS-L cells stably expressing ePL-tagged CK1a were generated via lentiviral infection with pLOC-ePL-Aiolos (or Ikaros, GSPT1, or CK1a). […] Compounds were dispensed by an acoustic dispenser (ATS acoustic transfer system from EDC Biosystems) into a 384-well plate in a 10-point dose response curve using 3-fold dilutions starting at 10 μM and going down to […]. Then, 25 μL of media (RPMI-1640+10% heat inactivated FBS+25 mM Hepes+1 mM Na pyruvate+1× NEAA+1×Pen Strep Glutamine) containing 5000 of DF15 or MSD-L cells was dispensed per well. Assay plates were incubated at 37° C. with 5% CO2 for 4 hours except 20 hours for GSPT1. After incubation, 25 μL of the InCELL Hunter detection reagent working solution (DiscoverX, catalogue no. 96-0002, Fremont, Calif.) was added to each well and incubated at room temperature for 60 min protected from light. After 60 min, luminescence was read on an Envision or PHERAstar luminescence reader.
All substrate degradation curves were processed and evaluated using ActivityBase (IDBS), a data analysis software package. Ymin is minimum percent protein remaining.

The target in experiment [4] is T2, ePL-tagged GSPT1 (Homo sapiens, UniProt P15170+Q96SW2).
T2 construct: expressed in transfected cells
The description is as above. The class given is cell-based. As for the experimental part:
as §1
(§2) To determine the EC50 value of a compound for the degradation of a given substrate (concentration of compound that achieves half the maximum degradation observed), a four-parameter logistic model (sigmoidal dose—response model) (FIT=(A+{(B−A)/1+[(C/x)D]})) where C is the inflection point (EC50), D is the […], and A and B are the low and high limits of the fit, respectively) was used. All substrate degradation curves were processed and evaluated using ActivityBase (IDBS), a data analysis software package. Ymin is minimum percent protein remaining.

The target in experiment [5] is T3, ePL-tagged Ikaros (Homo sapiens, UniProt Q13422+Q96SW2).
T3 construct: expressed in transfected cells
The experiment is described as above. The class given is cell-based. As for the experimental part: as §1, §2

T1 sequence (Q9UKT9 whole entry): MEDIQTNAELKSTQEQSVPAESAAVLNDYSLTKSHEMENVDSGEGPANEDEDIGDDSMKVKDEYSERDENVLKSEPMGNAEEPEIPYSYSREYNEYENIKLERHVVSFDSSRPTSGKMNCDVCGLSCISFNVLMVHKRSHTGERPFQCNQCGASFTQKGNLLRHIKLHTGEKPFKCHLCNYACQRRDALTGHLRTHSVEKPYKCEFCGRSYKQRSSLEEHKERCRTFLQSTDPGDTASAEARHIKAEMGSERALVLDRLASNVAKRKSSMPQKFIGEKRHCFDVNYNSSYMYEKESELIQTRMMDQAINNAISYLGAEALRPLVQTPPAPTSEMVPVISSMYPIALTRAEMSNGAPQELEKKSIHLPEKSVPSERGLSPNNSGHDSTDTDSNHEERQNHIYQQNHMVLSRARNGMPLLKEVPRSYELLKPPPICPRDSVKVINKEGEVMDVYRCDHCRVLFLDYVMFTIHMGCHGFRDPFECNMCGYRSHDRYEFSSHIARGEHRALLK
T1 sequence (Q96SW2 whole entry): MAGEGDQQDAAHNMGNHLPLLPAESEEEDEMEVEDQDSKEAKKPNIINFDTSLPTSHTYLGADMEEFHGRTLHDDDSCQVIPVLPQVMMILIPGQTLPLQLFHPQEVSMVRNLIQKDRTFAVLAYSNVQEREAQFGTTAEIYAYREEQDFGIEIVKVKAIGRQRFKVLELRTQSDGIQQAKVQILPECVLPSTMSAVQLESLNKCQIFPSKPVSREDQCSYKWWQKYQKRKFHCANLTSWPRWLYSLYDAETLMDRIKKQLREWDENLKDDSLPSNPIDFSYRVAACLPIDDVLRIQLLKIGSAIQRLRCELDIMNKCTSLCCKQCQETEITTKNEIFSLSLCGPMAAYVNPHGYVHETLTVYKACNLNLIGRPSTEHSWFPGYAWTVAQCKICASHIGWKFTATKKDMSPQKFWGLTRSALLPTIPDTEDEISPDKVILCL
T1 sequence (Q16531 whole entry partner): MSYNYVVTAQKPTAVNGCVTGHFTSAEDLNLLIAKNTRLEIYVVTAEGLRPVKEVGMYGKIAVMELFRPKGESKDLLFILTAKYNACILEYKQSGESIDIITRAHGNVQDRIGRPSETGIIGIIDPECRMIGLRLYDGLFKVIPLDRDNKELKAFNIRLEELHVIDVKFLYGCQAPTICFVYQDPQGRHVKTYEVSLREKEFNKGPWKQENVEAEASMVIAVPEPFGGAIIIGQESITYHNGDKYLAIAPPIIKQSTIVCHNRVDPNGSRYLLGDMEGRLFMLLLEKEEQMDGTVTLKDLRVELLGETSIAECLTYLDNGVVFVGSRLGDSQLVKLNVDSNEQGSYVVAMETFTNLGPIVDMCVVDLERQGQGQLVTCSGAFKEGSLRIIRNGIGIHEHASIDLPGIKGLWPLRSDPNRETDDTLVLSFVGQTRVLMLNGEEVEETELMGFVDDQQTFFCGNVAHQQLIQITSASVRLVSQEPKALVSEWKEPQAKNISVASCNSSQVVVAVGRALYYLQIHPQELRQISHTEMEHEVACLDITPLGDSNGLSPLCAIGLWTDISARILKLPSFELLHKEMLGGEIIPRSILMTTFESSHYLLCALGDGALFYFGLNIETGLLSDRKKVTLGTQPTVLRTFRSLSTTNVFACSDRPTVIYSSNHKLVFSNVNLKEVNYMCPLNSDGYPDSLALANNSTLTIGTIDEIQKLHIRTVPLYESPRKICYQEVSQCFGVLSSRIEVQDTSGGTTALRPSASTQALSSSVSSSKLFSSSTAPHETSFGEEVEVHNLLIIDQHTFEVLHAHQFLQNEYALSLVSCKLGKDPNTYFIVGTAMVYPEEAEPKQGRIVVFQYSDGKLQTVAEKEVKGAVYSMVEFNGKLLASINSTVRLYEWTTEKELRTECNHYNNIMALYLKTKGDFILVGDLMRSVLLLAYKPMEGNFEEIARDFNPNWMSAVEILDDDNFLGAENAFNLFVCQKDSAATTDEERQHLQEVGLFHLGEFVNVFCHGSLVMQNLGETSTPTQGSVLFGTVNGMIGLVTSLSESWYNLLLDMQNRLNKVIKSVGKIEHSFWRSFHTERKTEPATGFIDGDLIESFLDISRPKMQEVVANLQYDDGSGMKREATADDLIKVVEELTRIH
T2 sequence (P15170 whole entry): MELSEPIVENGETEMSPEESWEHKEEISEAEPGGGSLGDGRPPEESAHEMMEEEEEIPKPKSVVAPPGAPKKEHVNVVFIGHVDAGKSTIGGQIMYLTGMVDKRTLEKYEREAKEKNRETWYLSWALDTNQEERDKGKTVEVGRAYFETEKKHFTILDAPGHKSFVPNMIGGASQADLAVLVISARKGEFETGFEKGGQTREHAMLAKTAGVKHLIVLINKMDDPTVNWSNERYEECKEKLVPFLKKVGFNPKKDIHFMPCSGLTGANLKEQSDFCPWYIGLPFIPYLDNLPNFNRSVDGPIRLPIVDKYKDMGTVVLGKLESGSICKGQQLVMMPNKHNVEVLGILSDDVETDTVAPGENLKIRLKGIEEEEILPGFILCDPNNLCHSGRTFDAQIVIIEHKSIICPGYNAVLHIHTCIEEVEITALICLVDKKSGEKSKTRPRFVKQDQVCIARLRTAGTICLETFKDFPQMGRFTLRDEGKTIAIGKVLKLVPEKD
T2 sequence (Q96SW2 whole entry): as the sequence (Q96SW2 whole entry) above
T2 sequence (Q16531 whole entry partner): as the sequence (Q16531 whole entry partner) above
T3 sequence (Q13422 whole entry): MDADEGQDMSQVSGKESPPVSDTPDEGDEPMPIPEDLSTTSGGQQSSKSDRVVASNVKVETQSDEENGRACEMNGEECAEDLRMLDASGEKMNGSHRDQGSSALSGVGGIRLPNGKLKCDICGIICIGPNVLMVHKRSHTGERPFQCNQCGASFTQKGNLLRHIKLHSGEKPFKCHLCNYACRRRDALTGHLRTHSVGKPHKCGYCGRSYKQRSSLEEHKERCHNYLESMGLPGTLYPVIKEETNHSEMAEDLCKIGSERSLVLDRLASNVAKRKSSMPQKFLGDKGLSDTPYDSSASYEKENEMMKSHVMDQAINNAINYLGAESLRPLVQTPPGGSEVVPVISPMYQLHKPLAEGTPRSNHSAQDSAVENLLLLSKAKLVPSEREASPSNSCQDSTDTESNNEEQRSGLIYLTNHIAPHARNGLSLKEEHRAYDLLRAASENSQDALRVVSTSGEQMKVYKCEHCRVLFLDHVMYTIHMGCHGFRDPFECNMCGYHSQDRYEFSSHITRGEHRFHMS
T3 sequence (Q96SW2 whole entry): as the sequence (Q96SW2 whole entry) above
T3 sequence (Q16531 whole entry partner): as the sequence (Q16531 whole entry partner) above

In the case of `Cc1ncccc1N1CCN(Cc2ccc3c(c2)CN(C2CCC(=O)NC2=O)C3=O)CC1` (stereo not drawn) [Compound C, 3-(5-((4-(2-methylpyridin-3-yl)piperazin-1-yl)methyl)-1-oxoisoindolin-2-yl)piperidine-2,6-dione], the “tagged CAR remaining” value in experiment [1] (WT Jurkat cells, 1 hour) is “below 20%”. The “tagged CAR degradation in the presence of inhibitor” value in experiment [1] (WT Jurkats, 2 hours, 20 nM or 200 nM, alongside 2 μM MLN4924 or 2 μM Bortezomib) is “failure to degrade tagged CAR”. Besides, in experiment [2], the “decrease of signaling (tdTomato reporter)” value is on record as “around 30%”. For the same compound, the results for the “Ymin (%)” value in experiment [3], in experiment [4] and in experiment [5] were 83%, 89% and 92%, respectively. Moreover, the DC50 in experiment [3] (Aiolos, DF15 cells, 4 hours, read-out: EC50 (the source's name)) is greater than 10 µM; in experiment [4] (GSPT1, DF15 cells, 20 hours, read-out: EC50 (the source's name)), greater than 10 µM; in experiment [5] (Ikaros, DF15 cells, 4 hours, read-out: EC50 (the source's name)) it was greater than 10 µM.
